Assay results taken from paper PMC7601695, “Transcriptome Analysis of Psacothea hilaris: De Novo Assembly and Antimicrobial Peptide Prediction” (Insects, 2020).

Assays:
Type in all cases: cell-based
[1] = system: Escherichia coli (KACC 13821, ATCC 11775); test: Radial diffusion assay, E. coli; settings: for Diameter of clearing zone, E. coli: peptide 200 μg/mL, 5 μL per 3-mm well, 3 h diffusion then 12 h at 37 °C, mean of tests repeated three times; for Antimicrobial activity compared with melittin, E. coli: in words
Procedure: (§1) The bacterial strains Escherichia coli (KACC 13821, ATCC 11775) and Staphylococcus aureus (KACC 10768, ATCC 25923), and the yeast strain Candida albicans (KCTC 7121, ATCC 14053) were purchased from the Korean Agricultural Culture Collection (KACC) and Korean Collection for Type Cultures (KCTC). Both bacteria and yeast were grown overnight in tryptic soy broth (TSB; Difco, Thermo Fisher Scientific, Waltham, MA, USA) at 37 °C, 200 rpm to the stationary phase. Bacteria were re-inoculated in fresh TSB medium and cultivated for 3 h to the log phase. The strains were stored with 15% glycerol at −70 °C.
(§2) The radial diffusion assay was performed to test the antimicrobial activities of peptides, as described previously with slight modifications. In brief, bacteria and yeast strains were grown to the mid-logarithmic phase in TSB at 37 °C and then washed twice with 10 mM sodium phosphate buffer (pH 7.4). A total of 4 × 10^6 colony forming unit (CFU) was added to 10 mL of an underlay agarose gel (9 mM sodium phosphate, 1 mM sodium citrate, pH 7.4, 1% (w/v) Type I (low electroendosmosis) agarose (Sigma, St. Louis, MO, USA), and 3% TSB (Difco, USA)). The underlay gel was poured into a 100-mm INTEGRIDTM Petri dish. After agarose solidification, 3-mm-diameter wells were punched and 5 μL of each peptide solution was added to each well. Buffer alone was used as a negative control. Plates were incubated at 37 °C for 3 h to allow for diffusion of the peptides. The underlay gel was then covered with 10 mL of nutrient-rich agar overlay (6% TSB and 1% agarose). The antimicrobial activity of a peptide was measured as the diameter of the cleared zone around each well after 12 h of incubation at 37 °C. This experiment was repeated at least 3 times.

[2] = system: Candida albicans (KCTC 7121, ATCC 14053); test: Radial diffusion assay, C. albicans; settings: for Diameter of clearing zone, C. albicans: peptide 200 μg/mL, 5 μL per 3-mm well, 3 h diffusion then 12 h at 37 °C, mean of tests repeated three times; for Antimicrobial activity compared with melittin, C. albicans: in words
Procedure: as §1, §2

[3] = system: Staphylococcus aureus (KACC 10768, ATCC 25923); test: Radial diffusion assay, S. aureus; settings: peptide 200 μg/mL, 5 μL per 3-mm well, 3 h diffusion then 12 h at 37 °C, mean of tests repeated three times
Procedure: as §1, §2

mouse erythrocytes = test: Hemolytic assay; settings: 12.5 μg/mL; 2.5% (v/v) mouse erythrocytes in PBS; 30 min, 37 °C; A540
Procedure: This experiment was approved by the Institutional Animal Care and Use Committee (IACUC) of the National Institute of Agricultural Sciences (approval number: NAS-202014). The hemolytic activity of the peptides was determined by monitoring the release of hemoglobin from mouse erythrocytes at 540 nm. For the hemolytic assay, 20 μL of each peptide solution at a predetermined concentration was added to 180 μL of a 2.5% (v/v) suspension of mouse erythrocytes in phosphate-buffered saline (PBS). Melittin (Sigma), a hemolytic and α-helical peptide isolated from bee venom, were used as the positive control. This mixture was incubated for 30 min at 37 °C, and 600 μL of PBS was then added to each tube. After 3 min of centrifugation at 10,000× g, the supernatant was […], and the absorbance was measured at 540 nm. Evaluations were made from the results of at least three independent experiments, each carried out in triplicate.
Figure 4 Cytotoxic effects of 13 selected peptides. Hemolytic activity of the peptides. Peptide concentration (x-axis) is plotted against the percentage of hemolysis (y-axis) of mouse red blood cells after incubation for 30 min. Melittin was used as the positive control. The percent hemolysis was calculated with the following equation: hemolysis (%) = (A540 of samp—A540 of peptide-free control)/(A540 of 100% control—A540 of peptide-free control) × 100. […]

Molecule | Diameter of clearing zone, E. coli [1] | Diameter of clearing zone, C. albicans [2] | Diameter of clearing zone, S. aureus [3] | Antimicrobial activity compared with melittin, E. coli [1] | Antimicrobial activity compared with melittin, C. albicans [2] | Hemolysis of mouse red blood cells (mouse erythrocytes)
RLLLLCYACGKS * [Ph 12, synthetic peptide predicted as novel AMP from the P. hilaris transcriptome] | 70 Units (1 mm = 10 Units) | 40 Units (1 mm = 10 Units) | 75 Units (1 mm = 10 Units) |  |  | 
KLPIVNVKLVNRIK * [Ph 2, synthetic peptide predicted as novel AMP from the P. hilaris transcriptome] | 80 Units (1 mm = 10 Units) | 80 Units (1 mm = 10 Units) | 90 Units (1 mm = 10 Units) | stronger antimicrobial activity than melittin | stronger antimicrobial activity than melittin | 
RAIKWPGNGLLFLKY * [Ph 1, synthetic peptide predicted as novel AMP from the P. hilaris transcriptome] | 85 Units (1 mm = 10 Units) | 65 Units (1 mm = 10 Units) | 86 Units (1 mm = 10 Units) | stronger antimicrobial activity than melittin |  | 
KMFTKCIRYRKM * [Ph 20, synthetic peptide predicted as novel AMP from the P. hilaris transcriptome] | 65 Units (1 mm = 10 Units) | 68 Units (1 mm = 10 Units) | 85 Units (1 mm = 10 Units) |  |  | 
KIGTFIKKLSYTS * [Ph 26, synthetic peptide predicted as novel AMP from the P. hilaris transcriptome] | 85 Units (1 mm = 10 Units) | 25 Units (1 mm = 10 Units) | 75 Units (1 mm = 10 Units) | stronger antimicrobial activity than melittin |  | 
KRGYQVPRIAFII * [Ph 3, synthetic peptide predicted as novel AMP from the P. hilaris transcriptome] | 72 Units (1 mm = 10 Units) | 80 Units (1 mm = 10 Units) | 85 Units (1 mm = 10 Units) |  | stronger antimicrobial activity than melittin | 
KRIFYLYIRGQ * [Ph 22, synthetic peptide predicted as novel AMP from the P. hilaris transcriptome] | 85 Units (1 mm = 10 Units) | 92 Units (1 mm = 10 Units) | 95 Units (1 mm = 10 Units) | stronger antimicrobial activity than melittin | stronger antimicrobial activity than melittin | 
RKSWRHWKC * [Ph 16, synthetic peptide predicted as novel AMP from the P. hilaris transcriptome] | 50 Units (1 mm = 10 Units) | 65 Units (1 mm = 10 Units) | 87 Units (1 mm = 10 Units) |  |  | 
RCLKTCFLSFIRY * [Ph 8, synthetic peptide predicted as novel AMP from the P. hilaris transcriptome] | 71 Units (1 mm = 10 Units) | 45 Units (1 mm = 10 Units) | 83 Units (1 mm = 10 Units) |  |  | 
CC[C@H](C)[C@H](NC(=O)CN)C(=O)NCC(=O)N[C@@H](C)C(=O)N[C@H](C(=O)N[C@@H](CC(C)C)C(=O)N[C@@H](CCCCN)C(=O)N[C@H](C(=O)N[C@@H](CC(C)C)C(=O)N[C@H](C(=O)N[C@H](C(=O)NCC(=O)N[C@@H](CC(C)C)C(=O)N1CCC[C@H]1C(=O)N[C@@H](C)C(=O)N[C@@H](CC(C)C)C(=O)N[C@H](C(=O)N[C@@H](CO)C(=O)N[C@@H](Cc1c[nH]c2ccccc12)C(=O)N[C@H](C(=O)N[C@@H](CCCCN)C(=O)N[C@@H](CCCNC(=N)N)C(=O)N[C@@H](CCCCN)C(=O)N[C@@H](CCCNC(=N)N)C(=O)N[C@@H](CCC(N)=O)C(=O)N[C@@H](CCC(N)=O)C(N)=O)[C@@H](C)CC)[C@@H](C)CC)[C@@H](C)O)[C@@H](C)O)C(C)C)C(C)C [Melittin, reference compound] | 75 Units (1 mm = 10 Units) | 65 Units (1 mm = 10 Units) | 100 Units (1 mm = 10 Units) |  |  | 92%
RISCVAMRLILK * [Ph 10, synthetic peptide predicted as novel AMP from the P. hilaris transcriptome] | 67 Units (1 mm = 10 Units) | 48 Units (1 mm = 10 Units) | 72 Units (1 mm = 10 Units) |  |  | 
KLSNAVFKSCRKI * [Ph 24, synthetic peptide predicted as novel AMP from the P. hilaris transcriptome] | 49 Units (1 mm = 10 Units) | 47 Units (1 mm = 10 Units) | 65 Units (1 mm = 10 Units) |  |  | 
RRRCRCCRY * [Ph 14, synthetic peptide predicted as novel AMP from the P. hilaris transcriptome] | 65 Units (1 mm = 10 Units) | 105 Units (1 mm = 10 Units) | 70 Units (1 mm = 10 Units) |  | stronger antimicrobial activity than melittin | 
KLQVVPAIHLVWLQK * [Ph 4, synthetic peptide predicted as novel AMP from the P. hilaris transcriptome] | 75 Units (1 mm = 10 Units) | 30 Units (1 mm = 10 Units) | 80 Units (1 mm = 10 Units) |  |  | 
